# Counter-ions that a name gives are not always drawn.
# Legend:
# [1] = target: T1, CRISP2 Y99P (Homo sapiens, UniProt P16562, Y99P); test: MST binding to CRISP2 single mutant Y99P; parameters: species or system mammalian; conditions: absence of PSP94, read-out: Kd, sterol binding by CRISP2 Y99P
# T1 construct: made in house; host or cells: E. coli
# Excerpt: (§1) This interaction is thus located outside the hydrophobic loop that harbors the sterol-binding CBM. Based on these structural considerations, it is thus not apparent why and how the interaction between PSP94 and CRISP2 would block sterol binding at the CBM. To investigate this question in more detail, we first performed computational docking studies to identify residues in CRISP2 that are critical for the interaction with PSP94. […] Two of these three interacting residues, N97 and L98, are conserved in all three CAP family members tested here, CRISP2, CRISP3, and Pry1 (Fig. 4A). […]
# (§2) MST experiments were performed to assess protein–protein, protein–lipid, and protein–calcium interactions using a Monolith NT.115 (Nanotemper Technologies). […] The dissociation constant Kd was obtained by plotting the normalized fluorescence (Fnorm) against the logarithm of ligand concentration. […]
# (§3) Quadruple mutant cells lacking the acyl-CoA synthetases FAA1 and FAA4 and the yeast CAP family members PRY1 and PRY3 (faa1∆ faa4∆ pry1∆ pry3∆) expressing different combinations of plasmid-borne copies of PRY1, CRISP2, and or PSP94, or their respective empty vectors (pRS423 or pRS426) were cultivated overnight. The export of fatty acids into the culture medium was then quantified. […]
# [2] = target: T2, CRISP2 N97P (Homo sapiens, UniProt P16562, N97P); test: MST binding to CRISP2 single mutant N97P; parameters: species or system mammalian; conditions: absence of PSP94, read-out: Kd, sterol binding by CRISP2 N97P
# T2 construct: made in house; host or cells: E. coli
# Excerpt: as §1, §2, §3
# T1 sequence (P16562 22-243 Y99P): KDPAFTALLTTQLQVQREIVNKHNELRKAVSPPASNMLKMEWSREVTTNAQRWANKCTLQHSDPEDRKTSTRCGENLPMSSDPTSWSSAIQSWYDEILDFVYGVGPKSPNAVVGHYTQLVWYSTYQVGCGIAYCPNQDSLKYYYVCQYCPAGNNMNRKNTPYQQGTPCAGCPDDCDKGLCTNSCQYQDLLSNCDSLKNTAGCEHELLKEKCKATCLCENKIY
# T2 sequence (P16562 22-243 N97P): as the sequence (P16562 22-243 Y99P) above, with N76P, P78Y counted along it
smiles,measurement,setting,value
CC(C)CCC[C@@H](C)[C@H]1CC[C@H]2[C@@H]3CC=C4C[C@@H](OS(=O)(=O)O)CC[C@]4(C)[C@H]3CC[C@]12C [cholesterol sulfate],Kd,[1],2500 ± 900 nM
same,Kd,[2],3100 ± 1500 nM

# Reference: paper PMC8857485, “Prostate secretory protein 94 inhibits sterol binding and export by the mammalian CAP protein CRISP2 in a calcium-sensitive manner” (The Journal of Biological Chemistry, 2022)
